For `CCCCCCCOC(=O)C(C)c1ccc2cc(OC)ccc2c1` (centres undefined), the logP was 7.21. Molecule `CCOC(=O)C(C)c1ccc2cc(OC)ccc2c1` (centres undefined) has a logP of 4.78. In the case of `CCC=CCCOC(=O)C(C)c1ccc2cc(OC)ccc2c1` (centres undefined), the logP is reported as 6.21. Work on `COc1ccc2cc(C(C)C(=O)OC(C)C)ccc2c1` (centres undefined) yielded a logP of 4.98. `CCCCOC(=O)C(C)c1ccc2cc(OC)ccc2c1` (centres undefined) gave a logP of 5.81. `COc1ccc2cc(C(C)C(=O)OC3COC4C(O)COC34)ccc2c1` (centres undefined) showed a logP of 3.14. `COc1ccc2cc(C(C)C(=O)OCCCO)ccc2c1` (centres undefined) showed a logP of 3.73. For `CCC#CCCOC(=O)C(C)c1ccc2cc(OC)ccc2c1` (centres undefined), the logP was 5.91. For `CCCCCOC(=O)C(C)c1ccc2cc(OC)ccc2c1` (centres undefined), the logP was 6.02. In the case of `COc1ccc2cc(C(C)C(=O)Oc3ccccc3)ccc2c1` (centres undefined), the logP is reported as 5.17. Molecule `COc1ccc2cc(C(C)C(=O)OCCOCCO)ccc2c1` (centres undefined) has a logP of 3.79. For `CCCOC(=O)C(C)c1ccc2cc(OC)ccc2c1` (centres undefined), the logP was 5.34. Work on `COc1ccc2cc(C(C)C(=O)OCC(C)O)ccc2c1` (centres undefined) yielded a logP of 3.74. With `CCCCCCOC(=O)C(C)c1ccc2cc(OC)ccc2c1` (centres undefined) the logP was 6.54. `CC=CC=CCOC(=O)C(C)c1ccc2cc(OC)ccc2c1` (centres undefined) showed a logP of 6.31. Work on `COc1ccc2cc(C(C)C(=O)OCCCCCCO)ccc2c1` (centres undefined) yielded a logP of 4.74. For `CCCCCCCCOC(=O)C(C)c1ccc2cc(OC)ccc2c1` (centres undefined), the logP was 7.66. For `COc1ccc2cc(C(C)C(=O)OCC(C)=O)ccc2c1` (centres undefined), the logP was 4.06. Molecule `COc1ccc2cc(C(C)C(=O)OCC=C(C)CCC=C(C)C)ccc2c1` (centres undefined) has a logP of 7.77. Molecule `COC(=O)C(C)c1ccc2cc(OC)ccc2c1` (centres undefined) has a logP of 4.6. In the case of `COc1ccc2cc(C(C)C(=O)OC3CCCCC3=O)ccc2c1` (centres undefined), the logP is reported as 4.96. `COc1ccc2cc(C(C)C(=O)OCCO)ccc2c1` (centres undefined) showed a logP of 3.05. Work on `COc1ccc2cc(C(C)C(=O)OC3CCCCC3O)ccc2c1` (centres undefined) yielded a logP of 4.71. With `COc1ccc2cc(C(C)C(=O)OC3CCCCC3)ccc2c1` (centres undefined) the logP was 5.82.

From the SangsterLogP compilation
